The values below come from ChEMBL document CHEMBL5291721, “A preclinical secondary pharmacology resource illuminates target-adverse drug reaction associations of marketed drugs” (Nat Commun, 2023).

Where only a bound is given, the exact number is not on record here.

Assay [1] concerns the target T1, Sodium-dependent serotonin transporter (Homo sapiens, UniProt P31645).
For assay [2], the target named is T2, Alpha-1A adrenergic receptor (Homo sapiens, UniProt P35348).
T2 sequence (P35348 whole entry): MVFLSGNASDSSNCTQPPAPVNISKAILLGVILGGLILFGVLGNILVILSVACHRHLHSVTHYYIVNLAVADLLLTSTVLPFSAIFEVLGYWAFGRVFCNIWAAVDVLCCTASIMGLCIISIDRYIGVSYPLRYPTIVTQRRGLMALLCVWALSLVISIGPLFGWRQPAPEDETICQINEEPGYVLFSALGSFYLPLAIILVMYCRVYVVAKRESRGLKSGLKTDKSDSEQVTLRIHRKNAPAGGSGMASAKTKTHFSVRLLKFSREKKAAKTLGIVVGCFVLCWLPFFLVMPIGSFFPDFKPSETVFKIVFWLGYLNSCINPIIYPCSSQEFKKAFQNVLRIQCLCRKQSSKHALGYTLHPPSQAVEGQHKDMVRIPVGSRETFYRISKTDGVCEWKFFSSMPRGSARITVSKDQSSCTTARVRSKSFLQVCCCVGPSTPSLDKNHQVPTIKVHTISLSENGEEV
Type of assay: functional, cell-based.

The next assay addresses Vasopressin V2 receptor (Homo sapiens, UniProt P30518).
Assay [3] has as its target Kappa-type opioid receptor (Homo sapiens, UniProt P41145).
Assay [4] addresses Vascular endothelial growth factor receptor 2 (Homo sapiens, UniProt P35968). Type of assay: functional.
A further assay deals with Mu-type opioid receptor (Homo sapiens, UniProt P35372).
Assay [5] concerns the target 3',5'-cyclic-AMP phosphodiesterase 4A (Homo sapiens, UniProt P27815). Type of assay: functional.
In a further assay the target is T3, Progesterone receptor (Homo sapiens, UniProt P06401).
T3 sequence (P06401 whole entry): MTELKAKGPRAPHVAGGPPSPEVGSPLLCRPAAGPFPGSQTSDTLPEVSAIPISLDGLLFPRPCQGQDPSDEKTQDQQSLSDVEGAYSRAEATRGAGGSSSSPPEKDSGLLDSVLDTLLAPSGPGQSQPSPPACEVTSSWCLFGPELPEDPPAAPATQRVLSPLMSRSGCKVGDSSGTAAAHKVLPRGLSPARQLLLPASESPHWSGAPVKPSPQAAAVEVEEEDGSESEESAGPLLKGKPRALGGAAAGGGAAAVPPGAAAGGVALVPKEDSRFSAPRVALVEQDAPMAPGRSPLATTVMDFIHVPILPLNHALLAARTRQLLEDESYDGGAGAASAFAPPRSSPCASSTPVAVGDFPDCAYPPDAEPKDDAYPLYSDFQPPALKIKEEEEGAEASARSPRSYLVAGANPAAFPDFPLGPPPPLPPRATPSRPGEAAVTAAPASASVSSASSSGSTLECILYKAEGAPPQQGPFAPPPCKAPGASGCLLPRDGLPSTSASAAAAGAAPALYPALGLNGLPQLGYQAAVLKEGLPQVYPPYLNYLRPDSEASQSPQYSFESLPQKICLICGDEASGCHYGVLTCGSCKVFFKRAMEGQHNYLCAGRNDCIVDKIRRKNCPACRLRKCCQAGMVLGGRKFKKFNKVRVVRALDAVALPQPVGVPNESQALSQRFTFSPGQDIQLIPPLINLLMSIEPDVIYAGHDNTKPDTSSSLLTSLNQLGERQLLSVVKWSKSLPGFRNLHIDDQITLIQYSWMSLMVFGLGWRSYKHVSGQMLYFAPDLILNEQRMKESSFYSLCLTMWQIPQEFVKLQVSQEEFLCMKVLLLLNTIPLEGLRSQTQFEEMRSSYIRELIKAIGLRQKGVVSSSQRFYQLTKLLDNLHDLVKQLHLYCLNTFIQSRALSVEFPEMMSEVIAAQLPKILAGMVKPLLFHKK

The next assay concerns the target T4, Thromboxane A2 receptor (Homo sapiens, UniProt P21731).
T4 sequence (P21731 whole entry): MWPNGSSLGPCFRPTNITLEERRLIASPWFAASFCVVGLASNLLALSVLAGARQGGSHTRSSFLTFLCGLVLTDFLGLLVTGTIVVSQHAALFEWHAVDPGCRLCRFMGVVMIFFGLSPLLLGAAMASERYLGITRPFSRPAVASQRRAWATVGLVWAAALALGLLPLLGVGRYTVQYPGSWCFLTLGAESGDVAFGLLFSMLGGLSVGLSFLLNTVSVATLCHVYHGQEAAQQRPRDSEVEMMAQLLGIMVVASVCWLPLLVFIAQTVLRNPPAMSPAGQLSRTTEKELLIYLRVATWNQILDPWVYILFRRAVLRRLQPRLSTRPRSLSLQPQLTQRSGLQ
In kind it is functional, cell-based.

The target in assay [6] is Voltage-dependent L-type calcium channel subunit alpha-1C (Rattus norvegicus, UniProt P22002). In kind it is functional.
Assay [7] concerns the target Prostaglandin G/H synthase 1 (Homo sapiens, UniProt P23219). In kind it is functional.
Assay [8] has as its target T1, Sodium-dependent serotonin transporter. This is another data set of the same source.
Further: assay procedure not described here.

Chain of 3',5'-cyclic-AMP phosphodiesterase 4A (P27815 whole entry): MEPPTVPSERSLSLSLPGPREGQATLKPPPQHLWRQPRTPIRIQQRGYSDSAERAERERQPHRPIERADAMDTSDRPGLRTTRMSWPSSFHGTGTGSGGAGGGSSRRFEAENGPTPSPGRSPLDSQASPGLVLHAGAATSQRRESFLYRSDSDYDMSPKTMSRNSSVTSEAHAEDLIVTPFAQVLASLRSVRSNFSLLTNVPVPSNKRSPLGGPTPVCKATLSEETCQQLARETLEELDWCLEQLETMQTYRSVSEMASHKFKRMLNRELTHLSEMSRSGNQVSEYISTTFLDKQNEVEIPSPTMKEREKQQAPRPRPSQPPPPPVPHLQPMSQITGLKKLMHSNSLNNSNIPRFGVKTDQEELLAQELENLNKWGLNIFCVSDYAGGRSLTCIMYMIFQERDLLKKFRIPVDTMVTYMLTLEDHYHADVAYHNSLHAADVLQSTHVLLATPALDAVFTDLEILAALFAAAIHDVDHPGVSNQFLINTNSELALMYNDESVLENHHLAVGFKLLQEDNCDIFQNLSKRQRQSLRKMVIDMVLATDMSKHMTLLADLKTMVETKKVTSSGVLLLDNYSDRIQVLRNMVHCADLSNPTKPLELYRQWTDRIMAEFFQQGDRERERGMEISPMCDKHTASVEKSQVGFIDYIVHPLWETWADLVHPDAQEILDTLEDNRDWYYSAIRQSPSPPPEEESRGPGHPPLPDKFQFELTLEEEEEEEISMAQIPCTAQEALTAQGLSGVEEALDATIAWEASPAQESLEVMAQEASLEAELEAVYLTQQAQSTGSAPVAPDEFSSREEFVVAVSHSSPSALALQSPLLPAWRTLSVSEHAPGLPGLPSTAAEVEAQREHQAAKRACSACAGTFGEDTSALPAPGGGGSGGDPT
Chain of Vasopressin V2 receptor (P30518 whole entry): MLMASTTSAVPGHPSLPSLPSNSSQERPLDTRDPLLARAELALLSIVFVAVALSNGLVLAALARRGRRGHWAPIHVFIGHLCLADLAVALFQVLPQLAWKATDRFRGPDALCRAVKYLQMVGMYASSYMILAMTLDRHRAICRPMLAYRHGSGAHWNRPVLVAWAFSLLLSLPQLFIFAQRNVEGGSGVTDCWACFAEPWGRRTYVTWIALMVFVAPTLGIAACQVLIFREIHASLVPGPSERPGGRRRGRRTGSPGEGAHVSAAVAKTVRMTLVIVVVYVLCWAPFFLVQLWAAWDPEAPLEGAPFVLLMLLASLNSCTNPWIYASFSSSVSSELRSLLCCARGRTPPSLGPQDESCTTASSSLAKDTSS
Chain of Mu-type opioid receptor (P35372 whole entry): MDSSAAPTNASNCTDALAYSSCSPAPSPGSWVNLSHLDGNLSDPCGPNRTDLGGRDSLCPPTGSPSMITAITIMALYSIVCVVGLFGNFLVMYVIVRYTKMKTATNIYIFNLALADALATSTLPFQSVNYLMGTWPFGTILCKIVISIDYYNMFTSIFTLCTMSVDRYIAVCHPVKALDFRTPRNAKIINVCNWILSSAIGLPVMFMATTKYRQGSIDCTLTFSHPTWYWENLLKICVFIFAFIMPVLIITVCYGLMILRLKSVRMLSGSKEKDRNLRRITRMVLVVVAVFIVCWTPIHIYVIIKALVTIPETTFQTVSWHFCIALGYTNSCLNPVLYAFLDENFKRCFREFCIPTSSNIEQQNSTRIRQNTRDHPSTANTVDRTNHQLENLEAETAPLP
Chain of Kappa-type opioid receptor (P41145 whole entry): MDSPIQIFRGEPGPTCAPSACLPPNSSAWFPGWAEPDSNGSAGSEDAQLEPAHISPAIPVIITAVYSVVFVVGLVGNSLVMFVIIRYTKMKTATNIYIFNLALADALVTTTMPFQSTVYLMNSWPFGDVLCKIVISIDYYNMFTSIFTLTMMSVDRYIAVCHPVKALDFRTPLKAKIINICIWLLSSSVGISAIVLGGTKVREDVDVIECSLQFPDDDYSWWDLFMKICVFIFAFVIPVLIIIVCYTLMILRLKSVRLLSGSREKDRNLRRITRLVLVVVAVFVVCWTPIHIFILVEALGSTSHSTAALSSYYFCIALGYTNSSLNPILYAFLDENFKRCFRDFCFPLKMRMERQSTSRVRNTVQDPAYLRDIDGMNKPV
T1 sequence (P31645 whole entry): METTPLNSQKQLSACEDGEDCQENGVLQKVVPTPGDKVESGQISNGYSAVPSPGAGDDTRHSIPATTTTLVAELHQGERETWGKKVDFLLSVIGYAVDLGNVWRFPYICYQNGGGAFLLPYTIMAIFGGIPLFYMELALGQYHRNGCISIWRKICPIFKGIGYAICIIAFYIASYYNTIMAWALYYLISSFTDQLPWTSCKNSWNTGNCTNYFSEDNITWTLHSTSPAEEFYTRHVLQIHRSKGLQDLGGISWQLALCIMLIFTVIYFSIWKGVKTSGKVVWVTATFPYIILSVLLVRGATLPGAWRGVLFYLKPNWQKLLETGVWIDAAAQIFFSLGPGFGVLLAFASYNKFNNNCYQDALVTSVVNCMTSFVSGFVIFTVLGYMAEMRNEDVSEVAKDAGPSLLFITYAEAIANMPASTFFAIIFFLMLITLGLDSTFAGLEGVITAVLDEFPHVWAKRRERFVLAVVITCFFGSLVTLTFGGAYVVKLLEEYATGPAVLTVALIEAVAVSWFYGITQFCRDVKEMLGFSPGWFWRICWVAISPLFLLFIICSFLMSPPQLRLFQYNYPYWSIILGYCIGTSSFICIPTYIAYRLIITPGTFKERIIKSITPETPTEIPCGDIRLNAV
Chain of Voltage-dependent L-type calcium channel subunit alpha-1C (P22002 whole entry): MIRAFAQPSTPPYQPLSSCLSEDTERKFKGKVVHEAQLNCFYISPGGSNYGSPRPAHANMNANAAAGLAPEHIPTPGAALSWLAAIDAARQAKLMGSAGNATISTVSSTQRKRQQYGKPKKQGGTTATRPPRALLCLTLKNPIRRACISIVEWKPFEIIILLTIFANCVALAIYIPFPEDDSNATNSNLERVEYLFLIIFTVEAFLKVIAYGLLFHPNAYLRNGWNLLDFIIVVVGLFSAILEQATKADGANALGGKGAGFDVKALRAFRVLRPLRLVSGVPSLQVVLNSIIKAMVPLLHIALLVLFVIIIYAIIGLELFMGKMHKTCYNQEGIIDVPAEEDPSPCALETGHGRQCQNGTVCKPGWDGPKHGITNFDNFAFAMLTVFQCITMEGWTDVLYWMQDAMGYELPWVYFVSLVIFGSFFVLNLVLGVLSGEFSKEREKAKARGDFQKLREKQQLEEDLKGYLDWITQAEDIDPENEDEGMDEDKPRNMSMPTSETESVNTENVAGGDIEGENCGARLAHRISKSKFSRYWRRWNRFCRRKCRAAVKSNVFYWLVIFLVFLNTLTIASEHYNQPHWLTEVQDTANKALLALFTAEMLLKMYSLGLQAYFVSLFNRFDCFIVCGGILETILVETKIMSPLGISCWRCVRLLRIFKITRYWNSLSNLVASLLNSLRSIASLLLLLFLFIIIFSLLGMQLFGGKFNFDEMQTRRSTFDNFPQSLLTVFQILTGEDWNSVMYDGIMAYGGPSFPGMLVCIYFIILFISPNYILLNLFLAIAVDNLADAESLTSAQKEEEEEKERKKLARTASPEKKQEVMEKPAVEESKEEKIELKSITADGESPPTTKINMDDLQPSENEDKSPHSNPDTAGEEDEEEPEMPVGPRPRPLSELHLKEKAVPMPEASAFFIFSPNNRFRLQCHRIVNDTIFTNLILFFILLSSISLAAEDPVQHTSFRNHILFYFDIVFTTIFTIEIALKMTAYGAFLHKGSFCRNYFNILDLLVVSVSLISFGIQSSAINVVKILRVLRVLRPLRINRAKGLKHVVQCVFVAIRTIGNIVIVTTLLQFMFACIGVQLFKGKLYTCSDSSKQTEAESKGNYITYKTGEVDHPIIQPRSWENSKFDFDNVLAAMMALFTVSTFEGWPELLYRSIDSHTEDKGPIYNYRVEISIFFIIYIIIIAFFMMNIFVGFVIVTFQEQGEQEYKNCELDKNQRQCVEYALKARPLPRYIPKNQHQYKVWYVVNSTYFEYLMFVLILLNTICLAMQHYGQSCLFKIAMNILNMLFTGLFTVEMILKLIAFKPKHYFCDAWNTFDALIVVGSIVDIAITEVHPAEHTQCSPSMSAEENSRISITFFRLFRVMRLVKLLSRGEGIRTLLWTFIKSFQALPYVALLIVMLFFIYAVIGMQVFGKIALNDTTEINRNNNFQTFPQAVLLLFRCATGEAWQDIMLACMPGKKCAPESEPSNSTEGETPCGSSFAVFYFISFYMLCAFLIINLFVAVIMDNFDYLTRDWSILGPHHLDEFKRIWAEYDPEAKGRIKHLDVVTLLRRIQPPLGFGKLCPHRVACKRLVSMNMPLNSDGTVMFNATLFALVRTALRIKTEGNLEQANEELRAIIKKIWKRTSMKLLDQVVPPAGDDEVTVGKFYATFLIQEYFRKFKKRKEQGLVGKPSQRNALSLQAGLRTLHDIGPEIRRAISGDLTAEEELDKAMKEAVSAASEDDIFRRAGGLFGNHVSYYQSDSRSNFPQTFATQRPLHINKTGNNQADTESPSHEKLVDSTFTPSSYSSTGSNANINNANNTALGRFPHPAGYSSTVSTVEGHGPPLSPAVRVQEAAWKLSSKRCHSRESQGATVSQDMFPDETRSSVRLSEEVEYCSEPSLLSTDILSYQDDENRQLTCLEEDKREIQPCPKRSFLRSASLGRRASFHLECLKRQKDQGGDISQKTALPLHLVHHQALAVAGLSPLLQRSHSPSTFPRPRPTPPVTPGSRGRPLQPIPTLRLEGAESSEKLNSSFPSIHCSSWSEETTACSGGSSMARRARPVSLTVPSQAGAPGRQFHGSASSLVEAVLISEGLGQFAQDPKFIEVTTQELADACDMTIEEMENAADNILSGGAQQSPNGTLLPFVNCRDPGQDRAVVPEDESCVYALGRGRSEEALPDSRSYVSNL

As to `CN(C)CCC=C1c2ccccc2C(C)(C)c2ccccc21`, the AC50 in [1] turned out to be 0.24 µM; in assay [2], 0.63 µM.
On to `Nc1nc(NC2CC2)c2ncn([C@H]3C=C[C@@H](CO)C3)c2n1` [ABACAVIR], for which the AC50 (on Vasopressin V2 receptor; in [3]; in [1]; in assay [2]) was > 30 µM each time.
On to `CC(=O)NCCCS(=O)(=O)O` [ACAMPROSATE], for which the AC50 (at Vasopressin V2 receptor; in assay [3]; in [1]; in assay [2]) was > 30 µM throughout.
As to `CC(=O)Nc1ccc(O)cc1` [ACETAMINOPHEN], the AC50 (in assay [4]; at Mu-type opioid receptor; in [5]; at Progesterone receptor; at Thromboxane A2 receptor; in assay [2]) was > 30 µM throughout.
As for `COc1cc2nc(N(C)CCCNC(=O)C3CCCO3)nc(N)c2cc1OC` (centres undefined) [ALFUZOSIN], the AC50 (on Vasopressin V2 receptor; in assay [6]; in [3]; in assay [1]) was > 30 µM each time.
Consider `CNC(=O)c1ccccc1Sc1ccc2c(/C=C/c3ccccn3)n[nH]c2c1` [AXITINIB], for which the AC50 in assay [1] and in assay [2] was > 30 µM in each case.
For the compound `CCc1oc2ccccc2c1C(=O)c1cc(I)c(O)c(I)c1` [BENZIODARONE], the AC50 at Mu-type opioid receptor is 9.64 µM; in assay [5], 2.37 µM; at Progesterone receptor, 4.27 µM; in assay [7], 29.8 µM; in assay [8], > 30 µM; at Thromboxane A2 receptor it was > 1 µM.
Regarding `COCc1c(C(C)C)nc(C(C)C)c(/C=C/[C@@H](O)C[C@@H](O)CC(=O)O)c1-c1ccc(F)cc1` [CERIVASTATIN], the AC50 in assay [4] was > 30 µM; at Mu-type opioid receptor, > 30 µM; in assay [5], 21.5 µM; on Progesterone receptor, > 30 µM; in assay [7] it was > 30 µM; on Thromboxane A2 receptor, 20.1 µM.
For `C[N+](C)(C)CCO` [CHOLINE], the AC50 (at Mu-type opioid receptor; in assay [5]; on Progesterone receptor; in [7]; on Thromboxane A2 receptor) was > 30 µM in each case.
With `C[C@]12CC[C@@H]3c4ccc(O)cc4CC[C@H]3[C@@H]1C[C@@H](O)[C@@H]2O` [ESTRIOL], the AC50 in [4] is > 30 µM; at Mu-type opioid receptor, > 30 µM; in assay [5], > 30 µM; on Progesterone receptor, 3.3 µM; in [7] it was > 30 µM; at Thromboxane A2 receptor, > 30 µM.
As for `CCC1=C(C)CN(C(=O)NCCc2ccc(S(=O)(=O)NC(=O)N[C@H]3CC[C@H](C)CC3)cc2)C1=O` [GLIMEPIRIDE], the AC50 in [4] was > 30 µM; on Mu-type opioid receptor, > 30 µM; in [5] it was > 30 µM; at Progesterone receptor it was > 30 µM; in assay [7], > 30 µM; at Thromboxane A2 receptor, 18.5 µM.
For the compound `C[N+]1(C)CCC(OC(=O)C(O)(c2ccccc2)C2CCCC2)C1` (centres undefined) [GLYCOPYRRONIUM BROMIDE], the AC50 (on Vasopressin V2 receptor; in assay [5]; at Progesterone receptor; at Thromboxane A2 receptor) was > 30 µM each time.
As to `C[C@H]1CNCCc2ccc(Cl)cc21` [LORCASERIN], in [2], the AC50 is > 30 µM.
For `CN1C(C(=O)Nc2ccccn2)=C(O)c2sc(Cl)cc2S1(=O)=O` [LORNOXICAM], the AC50 at Vasopressin V2 receptor is > 30 µM; in [6], > 10 µM; in assay [3], > 10 µM; in [1] it was > 30 µM; in [2] it was > 30 µM.
Consider `CNC1Cc2ccccc2N(C)c2ccccc21` (centres undefined) [METAPRAMINE], for which the results for the AC50 in [1] and in assay [2] were 14 µM and 3.4 µM, respectively.
On to `Cc1nc([N+](=O)[O-])cn1-c1ccc([N+](=O)[O-])cc1` [NITREFAZOLE], for which the AC50 (on Vasopressin V2 receptor; in [3]; in [1]; in assay [2]) was > 30 µM each time.
In the case of `COc1ccc(CC(C)(C)NC[C@H](O)c2cc(O)cc3c2OCC(=O)N3)cc1` [OLODATEROL], the AC50 in assay [1] was determined as 0.0608 µM; in [2], 0.055 µM.
In the case of `CC(C)(S)[C@@H](N)C(=O)O` [PENICILLAMINE], the AC50 (in [4]; on Mu-type opioid receptor; in assay [5]; on Progesterone receptor; at Thromboxane A2 receptor) was > 30 µM in each case.
Regarding `C1CCC(C(CC2CCCCN2)C2CCCCC2)CC1` (centres undefined) [PERHEXILINE], the AC50 in assay [2] is > 10 µM.
`c1cnc(N2CCN(Cc3ccc4c(c3)OCO4)CC2)nc1` [PIRIBEDIL]: the values for the AC50 in assay [1] and in assay [2] were 12 µM and 23 µM, respectively.
Consider `COc1cc(NC(C)CCCN)c2ncccc2c1` (centres undefined) [PRIMAQUINE], for which the AC50 was > 30 µM at Vasopressin V2 receptor; > 30 µM in assay [4]; 16.2 µM in assay [5]; 15.4 µM at Progesterone receptor; > 30 µM on Thromboxane A2 receptor.
Turning to `Cc1c(C(=O)NN2CCCCC2)nn(-c2ccc(Cl)cc2Cl)c1-c1ccc(Cl)cc1` [RIMONABANT], the AC50 is > 30 µM on Vasopressin V2 receptor, 3.19 µM in assay [6], > 30 µM in assay [1] and 11 µM in [2].
For the compound `N[C@@H]1[C@H]2CN(c3nc4c(cc3F)c(=O)c(C(=O)O)cn4-c3ccc(F)cc3F)C[C@@H]12` [TROVAFLOXACIN], the AC50 in assay [2] was > 30 µM.
Consider `CCCCCCOc1nsnc1C1=CCCN(C)C1` [XANOMELINE], for which the AC50 in [4] was > 30 µM; on Mu-type opioid receptor, > 30 µM; in assay [5], 28.5 µM; at Progesterone receptor, > 30 µM; in assay [7], > 30 µM; in [8], 18.5 µM. In addition, the AC50 on Thromboxane A2 receptor was > 30 µM.
On to `Cc1cn([C@H]2C[C@H](N=[N+]=[N-])[C@@H](CO)O2)c(=O)[nH]c1=O` [ZIDOVUDINE], for which the AC50 on Vasopressin V2 receptor is > 30 µM; in [6] it was > 10 µM; in [4], > 30 µM; in assay [3], > 10 µM; at Mu-type opioid receptor it was > 30 µM; in assay [5], > 30 µM. Also, the AC50 (on Progesterone receptor; in [7]; at Thromboxane A2 receptor; in assay [2]) was > 30 µM in each case.

The term AC50 denotes the midpoint of the concentration-response curve, whichever way the signal moves.
